Source: the NIST ThermoML archive (doi:10.1021/acs.jced.5b00544)

Assay: mean ionic activity coefficient (dimensionless); mn = molality of the nth substance listed, in mol/kg
Conditions: 101 kPa, Liquid

[Cl-].[Na+] [sodium chloride] + O
mean ionic activity coefficient
Conditions | 273.15 K | 283.15 K | 293.15 K | 303.15 K | 313.15 K | 323.15 K | 333.15 K | 343.15 K | 353.15 K
m1 = 0.1 | 0.781 | 0.78 | 0.779 | 0.777 | 0.774 | 0.77 | 0.766 | 0.761 | 0.752
m1 = 0.2 | 0.734 | 0.735 | 0.735 | 0.732 | 0.729 | 0.725 | 0.72 | 0.713 | 0.703
m1 = 0.25 | 0.719 | 0.72 | 0.721 | 0.718 | 0.715 | 0.711 | 0.706 | 0.699 | 0.688
m1 = 0.5 | 0.672 | 0.677 | 0.681 | 0.68 | 0.678 | 0.674 | 0.667 | 0.659 | 0.647
m1 = 0.7 | 0.651 | 0.658 | 0.665 | 0.666 | 0.664 | 0.66 | 0.653 | 0.644 | 0.633
m1 = 0.75 | 0.646 | 0.655 | 0.662 | 0.663 | 0.662 | 0.658 | 0.651 | 0.641 | 0.631
m1 = 1 | 0.629 | 0.641 | 0.653 | 0.655 | 0.655 | 0.652 | 0.644 | 0.633 | 0.624

[Cl-].[K+] [potassium chloride] + O
mean ionic activity coefficient
Conditions | 273.15 K | 283.15 K | 293.15 K | 303.15 K | 313.15 K | 323.15 K | 333.15 K | 343.15 K
m1 = 0.1 | 0.772 | 0.771 | 0.77 | 0.767 | 0.764 | 0.761 | 0.757 | 0.752
m1 = 0.2 | 0.719 | 0.719 | 0.719 | 0.716 | 0.714 | 0.71 | 0.705 | 0.699
m1 = 0.5 | 0.643 | 0.647 | 0.651 | 0.649 | 0.647 | 0.644 | 0.638 | 0.632
m1 = 1 | 0.581 | 0.592 | 0.602 | 0.602 | 0.603 | 0.601 | 0.596 | 0.588
